These results are taken from article PMC5524698, “A cell-based, quantitative and isoform-specific assay for exchange proteins directly activated by cAMP” (Scientific Reports, 2017).

Each structure is given as a SMILES string.

For experiment [1], the target named is T1, EPAC2 (Mus musculus, UniProt Q9EQZ6).
T1 construct: HEK293 cell lines stably expressing Flag-tagged Rap1A and full-length EPAC1 or EPAC2 are proposed; expressed in transfected cells
T1 sequence (Q9EQZ6 1-1011): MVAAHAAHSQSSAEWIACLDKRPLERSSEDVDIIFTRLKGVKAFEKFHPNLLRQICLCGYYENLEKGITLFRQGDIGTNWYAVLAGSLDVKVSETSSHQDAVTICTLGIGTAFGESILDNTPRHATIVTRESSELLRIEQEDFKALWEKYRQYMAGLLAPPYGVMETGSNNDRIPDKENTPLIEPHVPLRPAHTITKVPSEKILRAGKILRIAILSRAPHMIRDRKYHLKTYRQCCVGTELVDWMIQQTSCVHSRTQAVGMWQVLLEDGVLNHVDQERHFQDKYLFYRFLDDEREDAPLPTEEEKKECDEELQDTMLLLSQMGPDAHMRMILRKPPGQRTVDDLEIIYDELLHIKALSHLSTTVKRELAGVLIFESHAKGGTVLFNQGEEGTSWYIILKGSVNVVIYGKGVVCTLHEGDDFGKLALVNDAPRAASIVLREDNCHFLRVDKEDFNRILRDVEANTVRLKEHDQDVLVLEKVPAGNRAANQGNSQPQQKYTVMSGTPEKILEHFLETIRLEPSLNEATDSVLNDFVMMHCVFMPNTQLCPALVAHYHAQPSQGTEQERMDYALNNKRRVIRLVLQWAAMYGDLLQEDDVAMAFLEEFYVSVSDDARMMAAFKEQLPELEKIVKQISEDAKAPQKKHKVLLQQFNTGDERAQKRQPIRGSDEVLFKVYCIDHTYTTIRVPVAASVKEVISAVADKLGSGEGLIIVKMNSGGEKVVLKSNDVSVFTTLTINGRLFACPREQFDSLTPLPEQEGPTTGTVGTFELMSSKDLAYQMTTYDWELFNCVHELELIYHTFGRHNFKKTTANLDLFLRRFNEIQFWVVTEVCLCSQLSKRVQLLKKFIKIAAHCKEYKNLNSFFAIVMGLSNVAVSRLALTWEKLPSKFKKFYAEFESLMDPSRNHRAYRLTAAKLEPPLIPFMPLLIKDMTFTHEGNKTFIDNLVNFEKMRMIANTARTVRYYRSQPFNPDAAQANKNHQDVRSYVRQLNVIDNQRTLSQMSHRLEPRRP
Kind of experiment: Cellular Rap1 assay (ELISA for Rap1-GTP) in HEK293/mEPAC2/Flag-Rap1 cells. The format is cell-based. A general note: An ELISA detects its analyte on a solid surface through an enzyme-linked reagent.
Procedure: HEK293 cells co-expressing hEPAC1/Flag-tagged hRap1A or mEPAC2/Flag-tagged hRap1A were seeded in 12-well plates (Corning #3513) at an initial confluency of 400,000 cell/well and incubate at 37 °C, 5% CO2, in MEM medium with 10% FBS, for 24 hours. Cells were then rinsed with HBSS and cultured in FBS-free MEM medium for another 16 hours. If necessary cells were first pretreated with various concentration of antagonists or vehicle at 37 °C for 30 min. Otherwise, the cells were stimulated with various concentrations of agonists or vehicle controls at 37 °C for 10 min, then immediately rinsed with ice-cold PBS and lysed in 500 µl ice-cold lysis buffer containing 20 mM Tris-HCl, pH 7.4, 150 mM NaCl, 10 mM MgCl2, 1% IGEPAL CA-630 and proteinase inhibitors cocktail. Cell extracts were clarified by centrifugation at 18,000 RCF for 20 min and their protein concentrations were determined by DC protein assay kit. […] 200 µl of OPD substrate was added into each well and absorbance signal at 450 nm was monitored using an M2 microplate reader (Molecular Devices) for 30 min with 1-min intervals. 10-min data points were used for quantification.

Experiment [2] concerns the target T2, EPAC1 (Homo sapiens, UniProt O95398).
T2 construct: HEK293 cell lines stably expressing Flag-tagged Rap1A and full-length EPAC1 or EPAC2 are proposed; expressed in transfected cells
T2 sequence (O95398 1-923): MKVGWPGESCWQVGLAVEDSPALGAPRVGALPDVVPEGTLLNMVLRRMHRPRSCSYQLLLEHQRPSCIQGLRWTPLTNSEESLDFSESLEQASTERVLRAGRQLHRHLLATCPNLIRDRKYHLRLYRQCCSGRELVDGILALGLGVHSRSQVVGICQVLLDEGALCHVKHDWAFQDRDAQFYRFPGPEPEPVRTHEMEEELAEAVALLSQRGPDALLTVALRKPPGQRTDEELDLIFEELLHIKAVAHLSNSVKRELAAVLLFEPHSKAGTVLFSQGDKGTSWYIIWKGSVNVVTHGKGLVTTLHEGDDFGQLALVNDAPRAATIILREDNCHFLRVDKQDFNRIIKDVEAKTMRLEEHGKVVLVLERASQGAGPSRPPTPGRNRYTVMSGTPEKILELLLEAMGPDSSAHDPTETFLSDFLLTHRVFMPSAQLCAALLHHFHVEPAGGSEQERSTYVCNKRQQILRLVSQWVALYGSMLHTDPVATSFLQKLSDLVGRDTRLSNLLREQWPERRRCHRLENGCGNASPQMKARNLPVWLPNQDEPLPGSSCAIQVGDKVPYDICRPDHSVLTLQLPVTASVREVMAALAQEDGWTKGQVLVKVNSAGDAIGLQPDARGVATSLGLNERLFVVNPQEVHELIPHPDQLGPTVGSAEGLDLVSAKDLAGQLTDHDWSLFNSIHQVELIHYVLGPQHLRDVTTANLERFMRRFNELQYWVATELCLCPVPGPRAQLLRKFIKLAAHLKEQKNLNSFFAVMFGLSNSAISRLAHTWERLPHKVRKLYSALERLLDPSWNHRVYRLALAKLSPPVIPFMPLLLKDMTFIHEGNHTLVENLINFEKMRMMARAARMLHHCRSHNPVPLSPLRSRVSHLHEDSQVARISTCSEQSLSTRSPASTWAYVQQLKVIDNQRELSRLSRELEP
Kind of experiment: Cellular Rap1 assay (ELISA for Rap1-GTP) in HEK293/hEPAC1/Flag-Rap1 cells. The experiment is classed as cell-based. To be noted: for AC50: 10 min stimulation, read-out: apparent half maximal activation constant (AC50), Rap1-GTP levels. An excerpt:
To develop a cell-based, isoform-specific EPAC activation assay, HEK293 cell lines stably expressing Flag-tagged Rap1A and full-length EPAC1 or EPAC2 are proposed. HEK293 cells express minimal endogenous levels of EPAC1 and EPAC2 and have been used as host cells for evaluating the cellular activities of ectopically expressed EPAC proteins in an isoform-specific manner. Activation of EPAC1 or EPAC2 in these cell lines by cAMP elevating agents leads to the accumulation of Flag-Rap1-GTP, which can be captured by RalGDS-RBD immobilized in a nickel-coated 96-well microplate. The levels of active Flag-Rap1-GTP protein can be quantitatively monitored using a specific anti-FLAG antibody and a HRP conjugated secondary antibody in a manner similar to that of a conventional ELISA assay (Fig. 1).
HEK293 (ATCC) cells were grown in MEM medium supplemented with 10% heat-inactivated FBS (Invitrogen), at 37 °C, 5% CO2. HEK293 stable cell lines expressing Flag-tagged human Rap1A (Flag-hRap1A) alone and co-expressing human EPAC1 (hEPAC1) and Flag-hRap1A or mouse EPAC2 (mEPAC2) and Flag-hRap1A were established by sequential transfections using Lipofectamine 2000 reagent (Invitrogen) with mammalian expression vectors, first with pIRES2-EGFP containing Flag-hRap1A and followed by pIRES‐hyg2 containing hEPAC1 or mEPAC2. Individual stable cell clones were selected and maintained in MEM containing 500 µg/ml G418 for pIRES2-EGFP and 100 µg/ml hygromycin B for pIRES‐hyg2, respectively.
HEK293 cells co-expressing hEPAC1/Flag-tagged hRap1A or mEPAC2/Flag-tagged hRap1A were seeded in 12-well plates (Corning #3513) at an initial confluency of 400,000 cell/well and incubate at 37 °C, 5% CO2, in MEM medium with 10% FBS, for 24 hours. Cells were then rinsed with HBSS and cultured in FBS-free MEM medium for another 16 hours. If necessary cells were first pretreated with various concentration of antagonists or vehicle at 37 °C for 30 min. Otherwise, the cells were stimulated with various concentrations of agonists or vehicle controls at 37 °C for 10 min, then immediately rinsed with ice-cold PBS and lysed in 500 µl ice-cold lysis buffer containing 20 mM Tris-HCl, pH 7.4, 150 mM NaCl, 10 mM MgCl2, 1% IGEPAL CA-630 and proteinase inhibitors cocktail. Cell extracts were clarified by centrifugation at 18,000 RCF for 20 min and their protein concentrations were determined by DC protein assay kit. 100 µl of properly diluted cell lysates containing 0 to 50 µg total proteins were added to nickel coated 96-well plate strips that were pre-coated with 200 µg of RalGDS-RBD-His6 proteins and incubated at 4 °C for 2 hours with gentle rocking. After washing with 100 µl ice-cold ELISA buffer (20 mM Tris-HCl, pH 7.4, 150 mM NaCl, 10 mM MgCl2 and 0.1% Tween-20) for 3 times, 100 µl mouse anti-Flag antibody (1:5000 in ELISA buffer) was added into each well and incubated at 4 °C for 1 hour with gentle shaking. Following three washes with 100 µl ice-cold ELISA buffer, 100 µl anti-mouse HRP-conjugated antibodies (1:3000 in ELISA buffer) were added into each well. After incubation at room temperature for 1 hour with gentle shaking, the wells were washed three times with 100 µl ELISA buffer. 200 µl of OPD substrate was added into each well and absorbance signal at 450 nm was monitored using an M2 microplate reader (Molecular Devices) for 30 min with 1-min intervals. 10-min data points were used for quantification.

The target in experiment [3] is T2, EPAC1. Nature of the experiment: Conventional affinity pull-down assay of Rap1-GTP using GST-RalGDS-RBD, immunoblot. The experiment is classed as cell-based. The note with it: HEK293/hEPAC1/Flag-Rap1 cells, various concentrations. An excerpt: Forskolin is a labdane diterpene natural product, commonly used a biochemical tool to stimulate intracellular levels of cAMP[31]. Treatment of HEK293/hEPAC1/Flag-Rap1 or HEK293/mEPAC2/ Flag-Rap1 cells with forskolin led to a dose-dependent increase in Rap1-GTP levels in both cell lines (Fig. 3A,B). […] Since forskolin-mediated increase in intracellular cAMP activates both EPAC and PKA, to ensure that the signals observed in our assay were not in part due to the activation of PKA, control experiments in the presence of a PKA-specific inhibitor, H89, were performed.
Figure S1. Dose-dependent cellular activation of EPAC1 by forskolin. Relative Rap1-GTP levels, as monitored by affinity pull-down assay using GST-RalGDS-RBD, in HEK293 cells overexpressing EPAC1 stimulated by various concentrations of forskolin. Inset: representative immunoblot image of Rap1-GTP levels under basal and forskolin-stimulated conditions.
In general terms: In western blotting, separated proteins are transferred to a membrane and probed.

Experiment [4] relates to EPAC2. Further details: method as in PMID 23091014, PMID 23286832. The note with it: in the presence of 20 µM cAMP; selective for EPAC2, not EPAC1; cited from earlier work.

`C=C[C@@]1(C)CC(=O)[C@]2(O)[C@@]3(C)[C@@H](O)CCC(C)(C)[C@@H]3[C@H](O)[C@H](OC(C)=O)[C@@]2(C)O1` [Forskolin]: the AC50 is 137 ± 36 nM at EPAC2 [1] (10 min stimulation, read-out: apparent half maximal activation constant (AC50), Rap1-GTP levels) and 226 ± 57 nM at EPAC1 [2] (HEK293/hEPAC1/Flag-Rap1 cells). Also, the “activation of Rap1 (relative Rap1-GTP levels, pull-down)” value on EPAC1 [3] is given as “dose-dependent activation”.

`CC(C)(C)c1cc(C(=O)/C(C#N)=N/Nc2cc(Cl)c(Cl)c(Cl)c2)no1` [NY-0123]: the half-maximal inhibitory concentration (IC50) on EPAC2 [1] (stimulated by 1 µM Forskolin, 30 min pretreatment, read-out: apparent IC50, inhibition of cellular EPAC2 activity) stood at 9600 ± 1600 nM; at EPAC1 [2] (stimulated by 1 µM Forskolin, 30 min pretreatment, HEK293/hEPAC1/Flag-Rap1 cells, read-out: apparent IC50, inhibition of cellular EPAC1 activity), 4900 ± 600 nM.

For `CO[C@@H]1[C@@H]2OP(=O)(OCOC(C)=O)OC[C@H]2O[C@H]1n1c(Sc2ccc(Cl)cc2)nc2c(N)ncnc21` (stereo partly shown) [007-AM, 8-pCPT-2-O-Me-cAMP-AM], the “dose-dependent activation of EPAC2 (Rap1-GTP levels)” value at EPAC2 [1] (up to 10 µM) is given as “did not reach plateau”. Besides, the half-maximal activity concentration (AC50) on EPAC1 [2] (HEK293/hEPAC1/Flag-Rap1 cells) came to 16.5 ± 3.1 nM.

Turning to `O=S(=O)(NCCNC/C=C/c1ccc(Br)cc1)c1cccc2cnccc12` [H89], on EPAC1 [2] (10 µM H89, HEK293 cells overexpressing EPAC1 (Fig. S2)), the “effects on basal and forskolin-induced Rap1 activities” value is reported as “minimal”.

As to `Cc1ccc(S(=O)(=O)c2c(C)cc(C)cc2C)cc1` [ESI-05], in the experiment on EPAC2 [4], the “potency of EPAC2 inhibition” value was “sub-micromolar”. In addition, at EPAC1 [2] (stimulated by 1 µM Forskolin, HEK293/hEPAC1/Flag-Rap1 cells), the “inhibition of cellular EPAC1 activation” value is on record as “no detectable activity”.

Broadly, the AC50 is the midpoint of the concentration-response curve, whichever way the signal moves. In general, IC50 refers to the concentration that gives 50% inhibition.
